Assays:
Assay in all cases: Kinase panel screen
Type in all cases: biochemical
Conditions in all cases: 10 µM compound
PDK1 = PDK1 (Homo sapiens, UniProt O15530)
Excerpt: (§1) Figure 7 (see also Table S4) summarizes the results of this assay as a histogram plotting the percentage of the remaining enzyme activity (x-axis) as a function of added lead compound (HL^8: blue trace, 8: red trace) for each of the 50 enzymes assayed (y-axis). […] Thus, the coordination to copper(II) completely changes the kinase inhibition profile of HL^8.
(§2) Figure 7 Screening of HL^8 and 8 against 50 enzymes: histogram with % remaining activity on the x-axis plotted against the compound identifier (blue trace: HL^8 and red trace: 8) and enzyme identifier on the […]. The screen was carried out at a compound concentration of 10 μM, an enzyme concentration of 50 nM, and an ATP concentration of 100 μM.
(§3) All kinase assays were carried out using Multidrop 384’s at room temperature in a total assay volume of 25.5 μL. To plates containing 0.5 μL of HL^8 and 8, DMSO control or acid blank […], 15 μL of an enzyme mix containing enzyme […], and excess peptide/protein substrate in buffer was added. Compounds were pre-incubated in the presence of the enzyme and peptide/protein substrate for 5 min before initiation of the reaction by addition of 10 μL of ATP (final concentration selected for each kinase at 5, 20, or 50 μM). Assays were carried out for 30 min at room temperature before termination by the addition of 5 μL of orthophosphoric acid. The assay plates were then harvested onto P81 Unifilter Plates by a PerkinElmer Harvester and air dried. The dry Unifilter plates were then sealed on the addition of MicroScint O and were counted in PerkinElmer Topcount scintillation counters.

DYRK1A = DYRK1A (Homo sapiens, UniProt Q13627)
Excerpt: as §1, §2, §3

MST2 = MST2 (Homo sapiens, UniProt Q13188)
Excerpt: as §1, §2, §3

PRK2 = PRK2 (Homo sapiens, UniProt Q16513)
Excerpt: as §1, §2, §3

VEG-FR = VEG-FR (Homo sapiens, UniProt P17948)
Excerpt: as §1, §2, §3

SmMLCK = SmMLCK (Homo sapiens, UniProt Q15746)
Excerpt: as §1, §2, §3

NEK6 = NEK6 (Homo sapiens, UniProt Q9HC98)
Excerpt: as §1, §2, §3

CHK2 = CHK2 (Homo sapiens, UniProt O96017)
Excerpt: as §1, §2, §3

p38a MAPK = p38a MAPK (Homo sapiens, UniProt Q16539)
Excerpt: as §1, §2, §3

JNK1 = JNK1 (Homo sapiens, UniProt P45983)
Excerpt: as §1, §2, §3

EF2K = EF2K (Homo sapiens, UniProt O00418)
Excerpt: as §1, §2, §3

IGF-1R = IGF-1R (Homo sapiens, UniProt P08069)
Excerpt: as §1, §2, §3

SRPK1 = SRPK1 (Homo sapiens, UniProt Q96SB4)
Excerpt: as §1, §2, §3

ROCK 2 = ROCK 2 (Homo sapiens, UniProt O75116)
Excerpt: as §1, §2, §3

EPH-A2 = EPH-A2 (Homo sapiens, UniProt P29317)
Excerpt: as §1, §2, §3

PKD1 = PKD1 (Homo sapiens, UniProt Q15139)
Excerpt: as §1, §2, §3

Aurora B = Aurora B (Homo sapiens, UniProt Q96GD4)
Excerpt: as §1, §2, §3

S6K1 = S6K1 (Homo sapiens, UniProt P23443)
Excerpt: as §1, §2, §3

LKB1 = LKB1 (Homo sapiens, UniProt Q15831)
Excerpt: as §1, §2, §3

TBK1 = TBK1 (Homo sapiens, UniProt Q9UHD2)
Excerpt: as §1, §2, §3

RIPK2 = RIPK2 (Homo sapiens, UniProt O43353)
Excerpt: as §1, §2, §3

TTK = TTK (Homo sapiens, UniProt P33981)
Excerpt: as §1, §2, §3

TrkA = TrkA (Homo sapiens, UniProt P04629)
Excerpt: as §1, §2, §3

JAK3 = JAK3 (Homo sapiens, UniProt P52333)
Excerpt: as §1, §2, §3

MKK1 = MKK1 (Homo sapiens, UniProt Q02750)
Excerpt: as §1, §2, §3

SYK = SYK (Homo sapiens, UniProt P43405)
Excerpt: as §1, §2, §3

CK1δ = CK1δ (Homo sapiens, UniProt P48730)
Excerpt: as §1, §2, §3

HIPK2 = HIPK2 (Homo sapiens, UniProt Q9H2X6)
Excerpt: as §1, §2, §3

MLK3 = MLK3 (Homo sapiens, UniProt Q16584)
Excerpt: as §1, §2, §3

PKBa = PKBa (Homo sapiens, UniProt P31749)
Excerpt: as §1, §2, §3

MARK3 = MARK3 (Homo sapiens, UniProt P27448)
Excerpt: as §1, §2, §3

Src = Src (Homo sapiens, UniProt P12931)
Excerpt: as §1, §2, §3

RSK1 = RSK1 (Homo sapiens, UniProt Q15418)
Excerpt: as §1, §2, §3

Lck = Lck (Homo sapiens, UniProt P06239)
Excerpt: as §1, §2, §3

Chain of PRK2 (Q16513 whole entry): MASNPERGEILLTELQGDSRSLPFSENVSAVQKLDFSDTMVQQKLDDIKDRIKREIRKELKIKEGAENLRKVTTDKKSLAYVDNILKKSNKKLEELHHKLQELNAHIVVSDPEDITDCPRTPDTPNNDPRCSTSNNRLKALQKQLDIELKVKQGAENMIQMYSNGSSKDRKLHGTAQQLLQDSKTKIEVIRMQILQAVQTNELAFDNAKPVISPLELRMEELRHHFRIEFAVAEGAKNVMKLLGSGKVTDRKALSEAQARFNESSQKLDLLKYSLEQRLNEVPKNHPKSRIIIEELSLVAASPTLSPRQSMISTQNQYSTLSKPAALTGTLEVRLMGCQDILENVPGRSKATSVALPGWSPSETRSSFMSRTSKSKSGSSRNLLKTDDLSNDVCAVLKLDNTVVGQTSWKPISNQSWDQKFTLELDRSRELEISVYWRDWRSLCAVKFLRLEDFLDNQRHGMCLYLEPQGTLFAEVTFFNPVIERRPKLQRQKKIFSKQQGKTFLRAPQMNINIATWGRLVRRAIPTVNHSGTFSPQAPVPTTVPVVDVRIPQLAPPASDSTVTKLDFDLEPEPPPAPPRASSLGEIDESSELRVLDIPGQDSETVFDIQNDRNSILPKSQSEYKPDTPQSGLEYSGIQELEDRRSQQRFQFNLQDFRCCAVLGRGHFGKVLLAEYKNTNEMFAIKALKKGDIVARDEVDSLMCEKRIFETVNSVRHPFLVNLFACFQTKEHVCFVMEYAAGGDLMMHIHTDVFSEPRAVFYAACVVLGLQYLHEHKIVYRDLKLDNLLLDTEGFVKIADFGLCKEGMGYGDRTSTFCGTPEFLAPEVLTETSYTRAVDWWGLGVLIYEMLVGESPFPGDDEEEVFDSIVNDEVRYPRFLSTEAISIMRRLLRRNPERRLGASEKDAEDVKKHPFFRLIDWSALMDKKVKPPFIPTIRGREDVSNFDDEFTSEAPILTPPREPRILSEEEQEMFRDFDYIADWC
Chain of Aurora B (Q96GD4 whole entry): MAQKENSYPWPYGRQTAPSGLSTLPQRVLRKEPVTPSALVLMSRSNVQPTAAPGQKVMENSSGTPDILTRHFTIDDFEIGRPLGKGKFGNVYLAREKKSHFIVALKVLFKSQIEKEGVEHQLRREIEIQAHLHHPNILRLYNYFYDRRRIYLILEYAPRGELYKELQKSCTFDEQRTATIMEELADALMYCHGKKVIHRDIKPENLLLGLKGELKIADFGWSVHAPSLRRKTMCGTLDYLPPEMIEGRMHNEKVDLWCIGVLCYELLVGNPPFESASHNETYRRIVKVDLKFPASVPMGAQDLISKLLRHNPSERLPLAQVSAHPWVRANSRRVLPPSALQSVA
Chain of CHK2 (O96017 whole entry): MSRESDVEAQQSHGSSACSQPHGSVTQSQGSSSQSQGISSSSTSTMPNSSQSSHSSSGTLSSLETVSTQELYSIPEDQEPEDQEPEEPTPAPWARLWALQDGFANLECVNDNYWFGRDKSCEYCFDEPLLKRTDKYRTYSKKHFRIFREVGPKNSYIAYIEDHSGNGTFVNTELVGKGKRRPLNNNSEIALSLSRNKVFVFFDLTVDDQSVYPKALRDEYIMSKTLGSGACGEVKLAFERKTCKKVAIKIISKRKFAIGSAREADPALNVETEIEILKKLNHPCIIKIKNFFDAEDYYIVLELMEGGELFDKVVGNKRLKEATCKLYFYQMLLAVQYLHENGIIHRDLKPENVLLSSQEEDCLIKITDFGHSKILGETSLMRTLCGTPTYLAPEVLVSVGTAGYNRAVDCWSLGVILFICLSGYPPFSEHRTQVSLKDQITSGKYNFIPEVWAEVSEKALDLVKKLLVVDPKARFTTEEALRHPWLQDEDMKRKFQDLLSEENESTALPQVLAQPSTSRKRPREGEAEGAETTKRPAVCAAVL
Chain of p38a MAPK (Q16539 whole entry): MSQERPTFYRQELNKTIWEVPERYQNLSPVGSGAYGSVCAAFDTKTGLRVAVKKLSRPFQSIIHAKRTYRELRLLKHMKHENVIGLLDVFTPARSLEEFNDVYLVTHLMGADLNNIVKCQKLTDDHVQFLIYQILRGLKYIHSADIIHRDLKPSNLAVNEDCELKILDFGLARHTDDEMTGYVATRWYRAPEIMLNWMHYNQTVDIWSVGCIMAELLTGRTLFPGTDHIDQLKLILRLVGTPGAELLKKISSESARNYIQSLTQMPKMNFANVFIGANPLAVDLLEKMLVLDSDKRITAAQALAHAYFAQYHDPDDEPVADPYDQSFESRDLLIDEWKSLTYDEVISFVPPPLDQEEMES
Chain of MST2 (Q13188 whole entry): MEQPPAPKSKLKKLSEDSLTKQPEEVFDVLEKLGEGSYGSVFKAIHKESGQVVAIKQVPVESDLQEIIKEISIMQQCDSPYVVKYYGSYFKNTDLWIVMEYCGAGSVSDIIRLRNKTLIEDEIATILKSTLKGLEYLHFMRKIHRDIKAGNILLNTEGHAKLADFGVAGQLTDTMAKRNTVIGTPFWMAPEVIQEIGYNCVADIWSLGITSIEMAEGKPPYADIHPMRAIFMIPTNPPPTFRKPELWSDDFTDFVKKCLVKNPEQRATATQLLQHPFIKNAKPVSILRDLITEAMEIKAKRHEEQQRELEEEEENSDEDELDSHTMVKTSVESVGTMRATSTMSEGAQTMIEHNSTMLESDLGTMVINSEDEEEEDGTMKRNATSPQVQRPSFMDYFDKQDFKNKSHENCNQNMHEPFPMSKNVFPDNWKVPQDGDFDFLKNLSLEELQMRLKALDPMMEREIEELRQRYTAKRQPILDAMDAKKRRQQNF
Chain of MKK1 (Q02750 whole entry): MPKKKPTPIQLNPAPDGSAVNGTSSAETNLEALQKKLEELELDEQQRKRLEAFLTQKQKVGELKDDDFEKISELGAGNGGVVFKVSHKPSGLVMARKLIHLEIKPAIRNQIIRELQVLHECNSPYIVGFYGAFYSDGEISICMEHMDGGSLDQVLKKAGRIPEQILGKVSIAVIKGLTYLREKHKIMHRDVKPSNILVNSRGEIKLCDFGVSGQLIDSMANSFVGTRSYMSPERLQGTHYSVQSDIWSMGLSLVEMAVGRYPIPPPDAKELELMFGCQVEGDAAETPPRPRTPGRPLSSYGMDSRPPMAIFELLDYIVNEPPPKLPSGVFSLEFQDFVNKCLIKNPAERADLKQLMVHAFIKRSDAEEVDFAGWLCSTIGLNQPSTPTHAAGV
Chain of Lck (P06239 whole entry): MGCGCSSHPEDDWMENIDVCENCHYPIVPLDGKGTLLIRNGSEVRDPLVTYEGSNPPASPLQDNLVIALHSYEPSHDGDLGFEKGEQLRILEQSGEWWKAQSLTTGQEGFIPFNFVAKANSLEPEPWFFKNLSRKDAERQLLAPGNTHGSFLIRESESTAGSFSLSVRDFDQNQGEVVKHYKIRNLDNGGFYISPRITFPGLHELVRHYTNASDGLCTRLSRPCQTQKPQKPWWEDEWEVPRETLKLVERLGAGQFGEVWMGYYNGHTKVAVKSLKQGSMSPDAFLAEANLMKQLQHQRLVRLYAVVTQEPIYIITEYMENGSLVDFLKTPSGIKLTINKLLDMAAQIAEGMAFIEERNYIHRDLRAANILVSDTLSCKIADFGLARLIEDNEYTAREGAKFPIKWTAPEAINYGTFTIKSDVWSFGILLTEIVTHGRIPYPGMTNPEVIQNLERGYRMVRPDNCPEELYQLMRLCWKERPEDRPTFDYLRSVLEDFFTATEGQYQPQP
Chain of PDK1 (O15530 whole entry): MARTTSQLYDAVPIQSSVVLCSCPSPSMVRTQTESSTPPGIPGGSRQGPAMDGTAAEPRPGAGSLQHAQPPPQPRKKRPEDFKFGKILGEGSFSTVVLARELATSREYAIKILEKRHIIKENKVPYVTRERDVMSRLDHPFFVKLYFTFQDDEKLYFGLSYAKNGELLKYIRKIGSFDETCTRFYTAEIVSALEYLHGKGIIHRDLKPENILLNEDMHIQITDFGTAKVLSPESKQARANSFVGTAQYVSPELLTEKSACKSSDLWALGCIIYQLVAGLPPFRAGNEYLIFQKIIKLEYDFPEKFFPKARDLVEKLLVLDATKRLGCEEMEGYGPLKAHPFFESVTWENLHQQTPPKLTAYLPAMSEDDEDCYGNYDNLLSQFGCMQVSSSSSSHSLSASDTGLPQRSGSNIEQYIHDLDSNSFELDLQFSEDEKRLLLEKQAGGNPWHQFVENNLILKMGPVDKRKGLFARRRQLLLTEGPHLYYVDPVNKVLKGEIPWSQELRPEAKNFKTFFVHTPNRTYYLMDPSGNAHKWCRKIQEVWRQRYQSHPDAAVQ
Chain of RSK1 (Q15418 whole entry): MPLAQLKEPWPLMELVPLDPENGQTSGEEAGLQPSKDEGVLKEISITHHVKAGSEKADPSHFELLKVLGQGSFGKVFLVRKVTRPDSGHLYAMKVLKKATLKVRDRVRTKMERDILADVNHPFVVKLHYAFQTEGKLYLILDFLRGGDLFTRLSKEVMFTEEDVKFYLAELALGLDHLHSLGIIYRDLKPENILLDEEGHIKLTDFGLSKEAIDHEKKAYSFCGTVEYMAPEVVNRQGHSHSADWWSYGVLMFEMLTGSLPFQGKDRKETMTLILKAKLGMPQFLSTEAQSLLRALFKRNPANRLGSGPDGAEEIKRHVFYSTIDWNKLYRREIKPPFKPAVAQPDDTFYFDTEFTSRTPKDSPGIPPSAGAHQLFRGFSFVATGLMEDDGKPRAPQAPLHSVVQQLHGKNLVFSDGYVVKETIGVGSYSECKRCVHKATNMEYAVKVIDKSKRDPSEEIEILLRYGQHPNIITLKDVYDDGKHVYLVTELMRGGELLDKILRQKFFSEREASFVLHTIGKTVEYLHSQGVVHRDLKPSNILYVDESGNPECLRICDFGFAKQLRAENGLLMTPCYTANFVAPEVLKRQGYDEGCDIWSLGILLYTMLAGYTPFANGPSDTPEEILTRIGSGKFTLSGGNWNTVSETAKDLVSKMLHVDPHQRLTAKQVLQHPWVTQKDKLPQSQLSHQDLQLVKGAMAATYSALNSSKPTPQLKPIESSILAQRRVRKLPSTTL

## CC(=NNc1nc2ccccc2c2c1[nH]c1ccc(Br)cc12)c1ccc(CN2CCOCC2)cn1.[Cl][Cu][Cl] [compound 8, CuCl2(HL^8)·H2O]
PDK1
  % remaining activity: 121%
DYRK1A
  % remaining activity: 77%
MST2
  % remaining activity: 82%
PRK2
  % remaining activity: 38%
VEG-FR
  % remaining activity: 77%
SmMLCK
  % remaining activity: 87%
NEK6
  % remaining activity: 43%
CHK2
  % remaining activity: 119%
p38a MAPK
  % remaining activity: 123%
JNK1
  % remaining activity: 134%
EF2K
  % remaining activity: 108%
IGF-1R
  % remaining activity: 60%
SRPK1
  % remaining activity: 40%
ROCK 2
  % remaining activity: 98%
EPH-A2
  % remaining activity: 132%
PKD1
  % remaining activity: 65%
Aurora B
  % remaining activity: 78%
S6K1
  % remaining activity: 109%
LKB1
  % remaining activity: 107%
TBK1
  % remaining activity: 76%
RIPK2
  % remaining activity: 95%
TTK
  % remaining activity: 64%
TrkA
  % remaining activity: 82%
JAK3
  % remaining activity: 120%
MKK1
  % remaining activity: 94%
SYK
  % remaining activity: 39%
CK1δ
  % remaining activity: 98%
HIPK2
  % remaining activity: 108%
MLK3
  % remaining activity: 41%
PKBa
  % remaining activity: 82%
MARK3
  % remaining activity: 112%
Src
  % remaining activity: 125%
RSK1
  % remaining activity: 53%
Lck
  % remaining activity: 54%

Reference: publication PMC8842277, “Highly Antiproliferative Latonduine and Indolo[2,3-c]quinoline Derivatives: Complex Formation with Copper(II) Markedly Changes the Kinase Inhibitory Profile” (Journal of Medicinal Chemistry, 2022)
